In ChEMBL document CHEMBL1201862, “PubChem BioAssay data set” (2004):
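48-hour exposure; five concentrations; linearly interpolated endpoints. The concentration for 50% growth inhibition is given as GI50.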 Active and inactive are the calls of the source. Rule as the data show it: active = GI50 up to about 1.1 µM and inactive = higher.

How the values were obtained:
Test in all cases: NCI-60 cell line screen, 48 h
[1] = test system: SF-268
[2] = test system: NCI-H226
[3] = test system: SN12C
[4] = test system: UO-31
[5] = test system: NCI-H460
[6] = test system: OVCAR-3
[7] = test system: HCT-15
[8] = test system: HT-29
[9] = test system: T47D
[10] = test system: UACC-257
[11] = test system: MDA-N
[12] = test system: HCT-116
[13] = test system: ACHN
[14] = test system: NCI/ADR-RES
[15] = test system: MDA-MB-435
[16] = test system: MDA-MB-231
[17] = test system: HL-60
[18] = test system: MOLT-4
[19] = test system: HCC 2998
[20] = test system: RPMI-8226
[21] = test system: LOX IMVI
[22] = test system: K562
[23] = test system: SK-MEL-28
[24] = test system: KM12
[25] = test system: SF-295
[26] = test system: SK-OV-3
[27] = test system: U-251
[28] = test system: Malme-3M
[29] = test system: DU-145
[30] = test system: A498
[31] = test system: UACC-62
[32] = test system: A549
[33] = test system: TK-10
[34] = test system: COLO 205
[35] = test system: EKVX
[36] = test system: SK-MEL-2
[37] = test system: 786-0
[38] = test system: NCI-H522
[39] = test system: RXF 393
[40] = test system: CAKI-1
[41] = test system: PC-3
[42] = test system: HOP-92
[43] = test system: SW-620
[44] = test system: IGROV-1
[45] = test system: SF-539
[46] = test system: NCI-H23
[47] = test system: Hs-578T
[48] = test system: OVCAR-8
[49] = test system: CCRF-CEM
[50] = test system: SNB-75
[51] = test system: M14
[52] = test system: MCF7
[53] = test system: SNB-19
[54] = test system: OVCAR-4
[55] = test system: HOP-62
[56] = test system: SK-MEL-5
[57] = test system: OVCAR-5
[58] = test system: SR

Measured: GI50

Oc1cc(-c2ccccc2)nc2ncccc12
0.0227 µM: [7]
active: [2] 0.502 µM | [3] 0.268 µM | [4] 0.272 µM | [5] 0.12 µM | [6] 0.145 µM | [8] 0.0646 µM | [10] 0.203 µM | [11] 0.0129 µM | [12] 0.0719 µM | [13] 0.446 µM | [14] 0.0655 µM | [15] 0.0133 µM | [16] 0.418 µM | [17] 0.0471 µM | [18] 0.0962 µM | [19] 0.232 µM | [20] 0.171 µM | [21] 0.0552 µM | [22] 0.0336 µM | [23] 0.0743 µM | [24] 0.0296 µM | [25] 0.0698 µM | [26] 0.126 µM | [27] 0.0927 µM | [28] 0.091 µM | [29] 0.298 µM | [31] 0.0396 µM | [32] 0.385 µM | [33] 0.206 µM | [34] 0.0855 µM | [36] 0.0303 µM | [37] 0.16 µM | [38] 0.0525 µM | [39] 0.106 µM | [40] 0.0792 µM | [41] 0.0681 µM | [42] 0.127 µM | [43] 0.0438 µM | [44] 0.2 µM | [45] 0.109 µM | [46] 0.203 µM | [47] 0.16 µM | [48] 0.22 µM | [49] 0.0867 µM | [50] 0.0975 µM | [51] 0.0853 µM | [52] 0.0372 µM | [53] 0.222 µM | [56] 0.0778 µM
inactive: [1] 1.93 µM | [9] > 100 µM | [30] > 100 µM | [35] > 100 µM | [54] 15 µM | [55] 1.15 µM

CN(Cc1cnc2nc(N)nc(N)c2n1)c1ccc(C(=O)NC(CCC(=O)NC(P(=O)(O)O)P(=O)(O)O)C(=O)O)cc1 (stereo unspecified)
22.9 µM: [7]
inactive: [1] 20.3 µM | [2] > 100 µM | [3] 55.2 µM | [4] 78.2 µM | [5] 9.62 µM | [6] > 100 µM | [8] 6.47 µM | [9] 26.3 µM | [10] 99.1 µM | [11] 16.2 µM | [12] 4.49 µM | [13] 49.7 µM | [14] 40.8 µM | [15] 30 µM | [16] > 100 µM | [17] 7.18 µM | [18] 52.8 µM | [20] 52.4 µM | [21] 8.32 µM | [22] 4.21 µM | [23] 83 µM | [24] 8.34 µM | [25] 13.1 µM | [27] 6.43 µM | [28] > 100 µM | [29] 45.3 µM | [31] > 100 µM | [32] 15.3 µM | [57] 45.8 µM | [33] > 100 µM | [34] > 100 µM | [35] > 100 µM | [36] 6.07 µM | [37] 7.31 µM | [38] 29 µM | [39] 4.79 µM | [40] 12.4 µM | [41] 5.62 µM | [42] > 100 µM | [43] 6.84 µM | [44] 36.7 µM | [58] 9.06 µM | [45] 32.6 µM | [46] 50.8 µM | [47] > 100 µM | [48] 4.33 µM | [49] 41.1 µM | [50] > 100 µM | [51] 8.34 µM | [52] 39.8 µM | [53] 9.18 µM | [54] > 100 µM | [55] 59.8 µM | [56] 45.5 µM
